# Measured values: patent publication US8895572B2, “Fused heterocyclic indane carboxamide CGRP receptor antagonists” (Merck Sharp & Dohme Corp., priority 2010, dated 2014)
# Molecular target: T1, recombinant human CL receptor/RAMP1 (Homo sapiens, UniProt O60894+Q16602)
# T1 construct: expressed in transfected cells; membranes used
# Test: Recombinant receptor binding assay (125I-hCGRP)
# Settings: membranes of HEK 293 cells expressing human CL receptor/RAMP1, 10 pM 125I-hCGRP, 3 h at room temperature
# Description: Human CL receptor (Genbank accession number L76380) was subcloned into the expression vector pIREShyg2 (BD Biosciences Clontech) as a 5′NheI and 3′ PmeI fragment. Human RAMP1 (Genbank accession number AJ001014) was subcloned into the expression vector pIRESpuro2 (BD Biosciences Clontech) as a 5′NheI and 3′NotI fragment. HEK 293 cells (human embryonic kidney cells; ATCC #CRL-1573) were cultured in DMEM with 4.5 g/L glucose, 1 mM sodium pyruvate and 2 mM glutamine supplemented with 10% fetal bovine serum (FBS), 100 units/mL penicillin and 100 μg/mL streptomycin, and maintained at 37° C. and 95% humidity. Cells were subcultured by treatment with 0.25% trypsin with 0.1% EDTA in HBSS. Stable cell line generation was accomplished by co-transfecting 10 μg of DNA with 30 μg Lipofectamine 2000 (Invitrogen) in 75 cm^2 flasks. CL receptor and RAMP1 expression constructs were co-transfected in equal amounts. Twenty-four hours after transfection the cells were diluted and selective medium (growth medium+300 μg/mL hygromycin and 1 μg/mL puromycin) was added the following day. A clonal cell line was generated by single cell deposition utilizing a FACS Vantage SE (Becton Dickinson). Growth medium was adjusted to 150 μg/mL hygromycin and 0.5 μg/mL puromycin for cell propagation.
# Cells expressing recombinant human CL receptor/RAMP1 were washed with PBS and harvested in harvest buffer containing 50 mM HEPES, 1 mM EDTA and Complete™ protease inhibitors (Roche). The cell suspension was disrupted with a laboratory homogenizer and centrifuged at 48,000 g to isolate membranes. The pellets were resuspended in harvest buffer plus 250 mM sucrose and stored at […]. For binding assays, 20 μg of membranes were incubated in 1 mL binding buffer (10 mM HEPES, pH 7.4, 5 mM MgCl2, and 0.2% BSA) for 3 h at room temperature containing 10 pM ^125I-hCGRP (GE Healthcare) and antagonist. The assay was terminated by filtration through 96-well GFB glass fiber filter plates (PerkinElmer) that had been blocked with 0.05% polyethyleneimine. The filters were washed 3 times with ice-cold assay buffer (10 mM HEPES, pH 7.4, and 5 mM MgCl2). Scintillation fluid was added and the plates were counted on a Topcount (Packard). Non-specific binding was determined and the data analysis was carried out with the apparent dissociation constant (Ki) determined by using a non-linear least squares fitting the bound CPM data to the equation below:
# [formula] Where Y is observed CPM bound, Ymax is total bound counts, Ymin is non specific bound counts, (Ymax−Ymin) is specific bound counts, % Imax is the maximum percent inhibition, % 1 min is the minimum percent inhibition, radiolabel is the probe, and the Kd is the apparent dissociation constant for the radioligand for the receptor as determined by hot saturation experiments.
# T1 sequence (Q16602 23-461): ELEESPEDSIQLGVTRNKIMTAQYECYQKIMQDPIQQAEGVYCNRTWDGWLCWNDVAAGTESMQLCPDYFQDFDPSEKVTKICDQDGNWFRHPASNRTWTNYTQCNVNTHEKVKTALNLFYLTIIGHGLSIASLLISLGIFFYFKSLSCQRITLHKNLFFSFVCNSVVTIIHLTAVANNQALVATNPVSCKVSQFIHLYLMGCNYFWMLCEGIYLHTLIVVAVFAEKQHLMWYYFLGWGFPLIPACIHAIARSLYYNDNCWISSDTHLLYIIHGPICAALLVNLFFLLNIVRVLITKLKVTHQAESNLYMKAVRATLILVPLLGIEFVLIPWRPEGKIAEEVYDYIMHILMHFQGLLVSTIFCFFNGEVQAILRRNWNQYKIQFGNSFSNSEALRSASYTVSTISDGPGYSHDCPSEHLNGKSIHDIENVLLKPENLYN
# T1 sequence (O60894 27-148): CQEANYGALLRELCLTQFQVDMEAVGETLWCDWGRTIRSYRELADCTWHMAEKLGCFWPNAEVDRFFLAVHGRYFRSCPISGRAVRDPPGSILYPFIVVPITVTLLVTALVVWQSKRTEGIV
row,SMILES,Ki
1,"O=C(N[C@H]1C[C@@H](c2cccc(F)c2F)Cn2c(CC(F)(F)F)cnc21)c1ccc2c(c1)C[C@@]1(C2)C(=O)Nc2ncccc21 [Example 1.2, (2R)—N-[(6S,8S)-6-(2,3-Difluorophenyl)-3-(2,2,2-trifluoroethyl)-5,6,7,8-tetrahydroimidazo[1,2-a]pyridin-8-yl]-2′-oxo-1,1′,2′,3-tetrahydrospiro[indene-2,3′-pyrrolo[2,3-b]pyridine]-5-carboxamide]",0.07 nM
2,"COC(C)(C)c1cnc2n1C[C@H](c1cccc(F)c1F)C[C@@H]2NC(=O)c1ccc2c(c1)C[C@@]1(C2)C(=O)Nc2ncccc21 [Example 1.8, (2R)—N-[(6S,8S)-6-(2,3-Difluorophenyl)-3-(2-methoxypropan-2-yl)-5,6,7,8-tetrahydroimidazo[1,2-a]pyridin-8-yl]-2′-oxo-1,1′,2′,3-tetrahydrospiro[indene-2,3′-pyrrolo[2,3-b]pyridine]-5-carboxamide]",0.03 nM
3,"O=C(N[C@H]1C[C@@H](c2cccc(F)c2F)Cn2c(CC(F)(F)F)nnc21)c1ccc2c(c1)C[C@@]1(C2)C(=O)Nc2ncccc21 [Example 1.14, (2R)—N-[(6S,8S)-6-(2,3-Difluorophenyl)-3-(2,2,2-trifluoroethyl)-5,6,7,8-tetrahydr[1,2,4]triazolo[4,3-a]pyridin-8-yl]-2′-oxo-1,1′,2′,3-tetrahydrospiro[indene-2,3′-pyrrolo[2,3-b]pyridine]-5-carboxamide]",0.07 nM
4,"C[C@@H]1[C@H](c2ccccc2)C[C@H](NC(=O)c2ccc3c(c2)C[C@@]2(C3)C(=O)Nc3ncccc32)c2nnc(C3(C(F)(F)F)CC3)n21 [Example 1.19, (2R)—N-{(5R,6S,8S)-5-Methyl-6-phenyl-3-[1-(trifluoromethyl)cyclopropyl]-5,6,7,8-tetrahydro[1,2,4]triazolo[4,3-a]pyridin-8-yl}-2′-oxo-1,1′,2′,3-tetrahydrospiro[indene-2,3′-pyrrolo[2,3-b]pyridine]-5-carboxamide]",0.39 nM
5,"C[C@@H]1[C@H](c2ccccc2)C[C@H](NC(=O)c2ccc3c(c2)C[C@@]2(C3)C(=O)Nc3ncccc32)c2ncc(C(C)(C)O)n21 [Example 1.20, (2R)—N-[(5R,6S,8S)-3-(2-Hydroxypropan-2-yl)-5-methyl-6-phenyl-5,6,7,8-tetrahydroimidazo[1,2-a]pyridin-8-yl]-2′-oxo-1,1′,2′,3-tetrahydrospiro[indene-2,3′-pyrrolo[2,3-b]pyridine]-5-carboxamide]",0.27 nM
6,"C[C@@H]1[C@H](c2ccccc2)C[C@H](NC(=O)c2ccc3c(c2)C[C@@]2(C3)C(=O)Nc3ncncc32)c2ncc(C(C)(C)O)n21 [Example 2.1, (2R)—N-[(5R,6S,8S)-3-(2-Hydroxypropan-2-yl)-5-methyl-6-phenyl-5,6,7,8-tetrahydroimidazo[1,2-a]pyridin-8-yl]-6′-oxo-1,3′,6′,7′-tetrahydrospiro[indene-2,5′-pyrrolo[2,3-d]pyrimidine]-5-carboxamide]",0.19 nM
